Experiments:
Type in all cases: biochemical
[1] = target: T1, purified human 20S proteasome (Homo sapiens, UniProt P25787+P60900); assay: 20S proteasome small peptide assay, combination of all three fluorogenic substrates (CT-L/Casp-L/T-L); parameters: key to 20S proteasome activation, classed in words: compounds that exhibit a maximum fold enhancement of <2 fold (i.e. <200%) at a concentration >20 μM were considered inactive; settings: for AC200 CT-L/Casp-L/T-L: concentration needed to double (200%) the rate of substrate degradation vs vehicle; for AC200 CT-L/Casp-L/T-L / Max Fold CT-L/Casp-L/T-L: three probes combined; for Max Fold CT-L/Casp-L/T-L: maximum fold rate increase vs vehicle control; for 20S proteasome activation, classed in words: concentrations tested 1.25 μM to 80 μM
T1 construct: purchased Boston Biochem or Life Sensors E-360 or ps020
Method: (§1) In vitro testing, 20S activation: The 20S proteasome activity of the compounds was assessed by utilizing the standard fluorogenic 7-amino-methylcoumarin (AMC) conjugated small peptide substrates that correspond to each of the catalytic sites in the 20S proteasome: chymotryptic-like site (Suc-LLVY-AMC), caspase-like site (Z-LLE-AMC), and trypsin-like site (Boc-LRR-AMC). When the small peptide substrate is degraded by the 20S proteasome, the AMC fluorophore is released and quantified to measure the rate of proteolytic cleavage. The 20S proteasome activity of the small molecules was evaluated at varying concentrations to determine the concentration at which the rate of proteolysis was doubled (i.e. the concentration needed to induce 200% activity) compared to the vehicle control (hereafter named as AC200). Concentrations ranging from 1.25 μM to 80 μM of each of compound were added to wells that contained 0.5 nM of purified human proteasome.
(§2) The overall enhancement of the rate of proteolysis of the 20S proteasome by a small molecule was first evaluated by adding a combination of all three peptide substrates to the treated sample. The combination of all three substrates represents a more accurate measurement of proteolytic activity of the proteasome because the catalytic sites housed in the β ring of the 20S proteasome communicate through allosteric interactions. For example, when a protein substrate encounters the chymotryptic-like site, a conformational change will occur activating the caspase-like site.^61 The individual contribution of each of the three catalytic sites was subsequently evaluated by adding only the corresponding peptide probes to gain insight into the contribution of each site on the overall enhanced proteolytic activity.
(§3) The fluorescent output, due to release of the AMC fluorophore, was then converted to the fold increase compared to a vehicle control sample, and the AC200 was calculated. […] (Table 1).
(§4) AC200 represents the concentration needed to double (e.g., 200%) the rate of substrate degradation compared to vehicle control. Max fold is the maximum fold rate increase compared to vehicle control.
(§5) 20S Proteasome Small Peptide Assay: Activity assays were carried out in a black flat/clear bottom 96 well plate with a […] volume. Concentrations of the potential activators, varying from 80 μM to 1.25 μM, were added to the well that contained 1 nM 20S proteasome purchased from either Boston Biochem (catalog number E-360) or Life Sensors (catalog number ps020), in a […] buffer at a pH of 7.8. This solution was left to incubate at 37° C. for 15 minutes. For the assay for the overall proteasome activity, 13.33 μM of each small peptide substrate is added. The 96 well plate is then placed into a plate reader (SpectraMax M5e spectrometer) and the plate reader will take a fluorescent reading every 5 minutes for an hour at 37° C. The enzymatic activity of the 20S proteasome is quantified using the fluorescent output at 380-460 nm, which is converted to max fold increase over the untreated sample. The activity of the individual catalytic assays is identical to the assay that assesses the overall activity of the 20S proteasome except only one small peptide substrate is added. To evaluate the activity of the CT-L and the Casp-L sites, 10 μM of the Suc-LLVY-AMC (Boston Biochem S-280) and Z-LLE-AMC (Boston Biochem S-230) were added, respectively. To evaluate the activity of the T-L site, 20 μM of the Boc-LRR-AMC (Boston Biochem S-300) is added.

[2] = target: T2, purified human 20S proteasome, Casp-L site (Homo sapiens, UniProt P25787+P60900); assay: 20S proteasome small peptide assay, Z-LLE-AMC caspase-like probe; settings: for AC200 Casp-L site: concentration needed to double rate vs vehicle; for Max Fold Casp-L site: maximum fold rate increase vs vehicle
T2 construct: purchased Boston Biochem or Life Sensors E-360 or ps020
Method: as §1, §2, §3, §4, §5

[3] = target: T3, purified human 20S proteasome, T-L site (Homo sapiens, UniProt P25787+P60900); assay: 20S proteasome small peptide assay, Boc-LRR-AMC trypsin-like probe; settings: for AC200 T-L site: concentration needed to double rate vs vehicle; for Max Fold T-L site: maximum fold rate increase vs vehicle
T3 construct: purchased Boston Biochem or Life Sensors E-360 or ps020
Method: as §1, §2, §3, §4, §5

[4] = target: T4, purified human 20S proteasome, CT-L site (Homo sapiens, UniProt P25787+P60900); assay: 20S proteasome small peptide assay, Suc-LLVY-AMC chymotryptic-like probe; settings: for AC200 CT-L site: concentration needed to double rate vs vehicle; for Max Fold CT-L site: maximum fold rate increase vs vehicle
T4 construct: purchased Boston Biochem or Life Sensors E-360 or ps020
Method: as §1, §2, §3, §4, §5

SMILES	AC200 CT-L/Casp-L/T-L [1] [µM]	Max Fold CT-L/Casp-L/T-L [1] [fold]	AC200 Casp-L site [2] [µM]	AC200 T-L site [3] [µM]	Max Fold T-L site [3] [fold]	AC200 CT-L site [4] [µM]	Max Fold CT-L site [4] [fold]	20S proteasome activation, classed in words [1]	Max Fold Casp-L site [2] [fold]	potency relative to compound 7 (times less potent) ([1]; 20S proteasome activation, compared with electron poor counterpart 7) [×]
Clc1ccc2c(c1)N(Cc1ccccc1)c1ccccc1S2 [Compound 1, 10-Benzyl-2-chloro-10H-phenothiazine]	1.5	2	>80	3.1	2	2.8	3			
CC(C)(C)OC(=O)c1ccc(CN2c3ccccc3Sc3ccc(Cl)cc32)cc1 [Compound 3, Tert-butyl 4-((2-chloro-10H-phenothiazin-10-yl)methyl)benzoate]	>80		>80	>80		>80		inactive		
COc1cccc(CN2c3ccccc3Sc3ccc(Cl)cc32)c1 [Compound 4, 2-Chloro-10-(3-methoxybenzyl)-10H-phenothiazine]	1.5	4	1.3	5.4	2	>80			4	
COC(=O)c1cccc(CN2c3ccccc3Sc3ccc(Cl)cc32)c1 [Compound 5, Methyl 3-((2-chloro-10H-phenothiazin-10-yl)methyl)benzoate]	2.4	6	9.7	1.9	8	2.4	6		4	
CC(=O)Oc1ccc(CN2c3ccccc3Sc3ccc(Cl)cc32)cc1 [Compound 6, 4-((2-Chloro-10H-phenothiazin-10-yl)methyl)phenyl acetate]	>80		>80	>80		>80		inactive		
O=[N+]([O-])c1cccc(CN2c3ccccc3Sc3ccc(Cl)cc32)c1 [Compound 7, 2-Chloro-10-(3-nitrobenzyl)-10H-phenothiazine]	1.1	8	1.2	1.6	8	1.1	9		12	
Nc1cccc(CN2c3ccccc3Sc3ccc(Cl)cc32)c1 [Compound 9, 3-((2-Chloro-10H-phenothiazin-10-yl)methyl)aniline]	3.6	8	3.8	9.2	10	6.5	9		10	3
N#CCCCCN1c2ccccc2Sc2ccc(Cl)cc21 [Compound 10, 5-(2-chloro-10H-phenothiazin-10-yl)pentanenitrile]	>80		>80	>80		>80		inactive		
O=C(C=CN1c2ccccc2Sc2ccc(Cl)cc21)Nc1ccccc1 [Compound 17, 3-(2-chloro-10H-phenothiazin-10-yl)-N-phenylpropenamide]	40	2.5	>80	80	2	>80				

Second part, led by results:

AC200 CT-L/Casp-L/T-L [1] [µM]	Max Fold CT-L/Casp-L/T-L [1] [fold]	AC200 Casp-L site [2] [µM]	AC200 T-L site [3] [µM]	Max Fold T-L site [3] [fold]	AC200 CT-L site [4] [µM]	Max Fold CT-L site [4] [fold]	20S proteasome activation, classed in words [1]	Max Fold Casp-L site [2] [fold]	SMILES	potency relative to compound 7 (times less potent) ([1]; 20S proteasome activation, compared with electron poor counterpart 7) [×]
>80		>80	>80		>80		inactive		NC(=O)CCCCN1c2ccccc2Sc2ccc(Cl)cc21 [Compound 11, 5-(2-Chloro-10H-phenothiazin-10-yl)pentanamide]	
>80		>80	>80		>80		inactive		NC(=O)C=CN1c2ccccc2Sc2ccc(Cl)cc21 [Compound 15, 3-(2-chloro-10H-phenothiazin-10-yl)propenamide]	
>80		>80	>80		>80		inactive		CN(C)C(=O)CCN1c2ccccc2Sc2ccc(Cl)cc21 [Compound 16, 3-(2-chloro-10H-phenothiazin-10-yl)-N,N-dimethylpropanamide]	
	3								CN(C(=O)CCN1c2ccccc2Sc2ccc(Cl)cc21)c1ccc(F)cc1 [Compound 18, 3-(2-chloro-10H-phenothiazin-10-yl)-N-(4-fluorophenyl)-N-methylpropanamide]	
